Experimental data published in article PMC9224512, “New Insights into the Determinants of Specificity in Human Type I Arginase: Generation of a Mutant That Is Only Active with Agmatine as Substrate” (International Journal of Molecular Sciences, 2022).
Changes are numbered by the printed parent chain.

Legend:
[1] = target: T1, human arginase type I N130D-S137C (Homo sapiens, UniProt P05089, N130D/S137C); experiment: Kinetic and inhibition studies, N130D-S137C mutant; type: biochemical
T1 sequence (P05089 1-322 N130D/S137C): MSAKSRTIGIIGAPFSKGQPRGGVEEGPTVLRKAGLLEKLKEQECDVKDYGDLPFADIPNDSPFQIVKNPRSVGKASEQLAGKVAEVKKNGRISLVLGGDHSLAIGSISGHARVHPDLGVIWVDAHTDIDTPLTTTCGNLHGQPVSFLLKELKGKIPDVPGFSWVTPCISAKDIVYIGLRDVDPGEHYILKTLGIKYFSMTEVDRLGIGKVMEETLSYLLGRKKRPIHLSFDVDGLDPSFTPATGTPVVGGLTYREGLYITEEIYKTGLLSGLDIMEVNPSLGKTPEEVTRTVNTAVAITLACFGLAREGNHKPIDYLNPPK
Description: (§1) Bacterial cultures were grown with shaking at 37 °C in Luria Broth media, in the presence of ampicillin (100 μg/mL). The wild-type and mutant human liver arginase cDNAs were directionally cloned into the pBluescript II KS(+) expression vector and then expressed in E. coli JM109, following induction with 1 mM isopropyl β-D-thiogalactopyranoside. The bacterial cells were disrupted by sonication on ice (5 × 30 s pulses), centrifuged for 20 min at 12,000× g, and the obtained supernatant was precipitated with ammonium sulfate (60% saturation). The pellet, collected by centrifugation at 12,000× g for 10 min, was re-suspended in buffer 5 mM Tris–HCl (pH 7.5) containing 2 mM MnCl2 and dialyzed for 6 h at 4 °C against the same buffer. After incubation with 5 mM MnCl2 for 10 min at 60 °C, the enzyme variants were purified as previously described. The purity of the enzymes was evaluated by SDS–PAGE stained by Coomassie blue and immunodetection using an anti- rat arginase I antibody.
(§2) The single, double, triple, and chimera variants of human arginase type I were obtained by PCR, using the QuickChange site-directed mutagenesis kit (Stratagene, La Jolla, CA, USA); the plasmid pBluescript II KS(+) containing the human liver arginase cDNA was used as template. To obtain the chimeric species of human arginase type I, serial mutations were made in each loop to be modified, using as template DNA the wild-type arginase gene or the previous done mutation, subcloned in the plasmid pBluescript II KS (+). Specifically, the residues present in the arginase structure were replaced by those corresponding to the agmatinase sequence of E. coli.
(§3) All assays were initiated by adding the enzyme to a previously equilibrated buffer with the substrate in solution (the concentrations of used substrates were between 0.2–3 fold the Km). Urea was determined by a colorimetric method with α-isonitrosopropiophenone. The protein concentrations were determined by the Bradford’s method, with bovine serum albumin as standard. […]

[2] = target: T2, human arginase type I N130D-N139D (Homo sapiens, UniProt P05089, N130D/N139D); experiment: Kinetic and inhibition studies, N130D-N139D mutant; type: biochemical
T2 sequence (P05089 1-322 N130D/N139D): T1 sequence (P05089 1-322 N130D/S137C) with C137S, N139D
Description: as §1, §2, §3

[3] = target: T3, type I human arginase D181T (Homo sapiens, UniProt P05089, D181T); experiment: Kinetic and inhibition studies, D181T mutant; type: biochemical; conditions: substrate arginine
T3 sequence (P05089 1-322 D181T): T1 sequence (P05089 1-322 N130D/S137C) with D130N, C137S, D181T
Description: as §1, §2
(§4) All assays were initiated by adding the enzyme to a previously equilibrated buffer with the substrate in solution (the concentrations of used substrates were between 0.2–3 fold the Km). Urea was determined by a colorimetric method with α-isonitrosopropiophenone. The protein concentrations were determined by the Bradford’s method, with bovine serum albumin as standard. Initial velocity and enzymatic inhibition experiments were performed in duplicate and repeated three times. The inhibitory patterns were initially determined by double reciprocal plots and re-plots of intercepts and slopes versus inhibitor concentrations. […] Velocities are expressed as μmol of urea/10 min.

[4] = target: T4, type I human arginase D181T/V182E (Homo sapiens, UniProt P05089, D181T/V182E); experiment: Kinetic and inhibition studies, D181T/V182E double mutant; type: biochemical; conditions: substrate arginine
T4 construct: made in house; host or cells: E. coli JM109
T4 sequence (P05089 1-322 D181T/V182E): T1 sequence (P05089 1-322 N130D/S137C) with D130N, C137S, D181T, V182E
Description: as §1, §2, §4

[5] = target: single, double and triple mutants (N130D, S137C, N139D) of human arginase type I; experiment: Kinetic properties stated for all loop A mutants together; type: biochemical; conditions: all mutants of Table 1; substrate arginine; read-out: Ki for competitive inhibition by the ornithine product
Description: as §1
The single, double, triple, and chimera variants of human arginase type I were obtained by PCR, using the QuickChange site-directed mutagenesis kit (Stratagene, La Jolla, CA, USA); the plasmid pBluescript II KS(+) containing the human liver arginase cDNA was used as template. […]

arginase N130A = system: arginase N130A; parameters: method as in PMID 19093830; conditions: substrate arginine; cited from earlier work
arginase N130Y = system: arginase N130Y; parameters: method as in PMID 19093830; conditions: substrate arginine; cited from earlier work
human arginase D183N = system: human arginase D183N; parameters: method as in PMID 19093830; conditions: substrate arginine; cited from earlier work
[6] = substrate = labelled compound, pH 9.5, 2 mM Mn2+

Row | Structure (SMILES) | Ki ([1]; read-out: Ki^orn) [mM] | Ki ([2]; read-out: Ki^orn) [mM] | Inhibition type [3] | Kis [3] [mM] | Inhibition type [4] | Kis (Ki) [4] [mM] | Ki [5] [mM] | kcat ([1]; substrate = labelled compound) [s⁻¹] | Km [1, 6] [mM] | kcat ([2]; substrate = labelled compound) [s⁻¹] | Km [2, 6] [mM] | kcat [3] [s⁻¹] | Km ([3]; pH 9.5, 2 mM Mn2+) [mM] | kcat [4] [s⁻¹] | Km ([4]; pH 9.5, 2 mM Mn2+) [mM] | increase of Km for arginine (arginase N130A) [fold] | reduction of kcat (arginase N130A) [%] | decrease in kcat (arginase N130Y) | increase in Km (human arginase D183N) [fold] | reduction in kcat (human arginase D183N) [%]
1 | NCCC[C@H](N)C(=O)O [Ornithine, L-ornithine] | 7.1 | 6.4 | Competitive | 1.6 ± 0.3 | mixed-type inhibition | 71 ± 12 | ~7 |  |  |  |  |  |  |  |  |  |  |  |  | 
2 | N=C(N)NCCC[C@H](N)C(=O)O [Arginine, L-arginine] |  |  |  |  |  |  |  | 23 | 6.5 | 33 | 6.1 | 191 ± 8 | 5.3 ± 0.8 | 188 ± 10 | 32 ± 5 | 50 | 37 | approximately 20 times | 27 | 12
